From patent US20230340011A1 (Asteroid Therapeutics, priority 2022, published 2023)

Key:
SREBP-2 = SREBP-2 (Homo sapiens (Human), UniProt Q12772); experiment: In vitro assay SREBP-2: PathHunter U2OS SREBP-2 Nuclear Translocation Cell Line, U18666A-stimulated; type: cell-based; details: PathHunter U2OS SREBP-2 nuclear translocation cells, U18666A 10 μM, overnight (16 hours)
LXRβ = LXRβ (Homo sapiens (Human), UniProt P55055); experiment: In vitro assay LXRβ: PathHunter NHR CHO cells, LXRβ / Steroid Receptor Co-activator Peptide enzyme fragment complementation; type: cell-based; details: PathHunter NHR CHO cells, full-length human LXRβ and SRCP, chemiluminescent signal; read-out: LXRβ PPI
Sequence of LXRβ (P55055 whole entry, the tested form may be a part): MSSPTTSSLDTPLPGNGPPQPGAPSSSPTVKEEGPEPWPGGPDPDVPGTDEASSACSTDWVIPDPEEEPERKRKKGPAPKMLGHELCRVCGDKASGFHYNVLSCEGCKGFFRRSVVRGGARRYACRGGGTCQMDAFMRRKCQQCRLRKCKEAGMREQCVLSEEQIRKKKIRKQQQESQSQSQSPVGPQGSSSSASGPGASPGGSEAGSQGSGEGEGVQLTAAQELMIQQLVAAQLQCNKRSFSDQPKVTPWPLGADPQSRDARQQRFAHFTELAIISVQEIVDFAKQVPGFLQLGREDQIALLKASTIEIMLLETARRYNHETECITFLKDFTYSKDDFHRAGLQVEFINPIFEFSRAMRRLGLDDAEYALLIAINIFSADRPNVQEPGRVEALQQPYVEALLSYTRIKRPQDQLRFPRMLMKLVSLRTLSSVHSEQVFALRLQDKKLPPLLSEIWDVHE
Procedure, shortened: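 Co-activator recruitment measured by chemiluminescence after signal generation. The CHO line carries full-length human LXRβ tagged with ProLink and an SRCP–enzyme acceptor fusion in the nucleus; cells sat overnight at 37° C before testing, in charcoal-dextran filtered serum medium with 1% final vehicle.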

Row | SMILES | IC50 (SREBP-2) [nM] | EC50 (LXRβ) [nM]
1 | C[C@H](CCC(=O)N1CCN(C(=O)c2ncccn2)CC1)[C@H]1CC[C@H]2[C@@H]3CC=C4C[C@@H](O)CC[C@]4(C)[C@H]3CC[C@]12C [Example 332, (R)-4-((3S,8S,9S,10R,13R,14S,17R)-3-hydroxy-10,13-dimethyl-2,3,4,7,8,9,10,11,12,13,14,15,16,17-tetradecahydro-1H-cyclopenta[a]phenanthren-17-yl)-1-(4-(pyrimidine-2-carbonyl)piperazin-1-yl)pentan-1-one] | < 250 | > 10000
2 | Cc1nccc(N2CCN(C(=O)CC[C@@H](C)[C@H]3CC[C@H]4[C@@H]5CC=C6C[C@@H](O)CC[C@]6(C)[C@H]5CC[C@]34C)C[C@@H]2C)n1 [Example 647, (4R)-4-[(1R,3aS,3bS,7S,9aR,9bS,11aR)-7-hydroxy-9a,11a-dimethyl-1H,2H,3H,3aH,3bH,4H,6H,7H,8H,9H,9aH,9bH,10H,11H,11aH-cyclopenta[a]phenanthren-1-yl]-1-[(3S)-3-methyl-4-(2-methylpyrimidin-4-yl)piperazin-1-yl]pentan-1-one] | < 250 | > 10000
3 | C[C@H](CCC(=O)N1CCC[C@@H](c2ccccc2)C1)[C@H]1CC[C@H]2[C@@H]3CC=C4C[C@@H](O)CC[C@]4(C)[C@H]3CC[C@]12C [Example 76, (R)-4-((3S,8S,9S,10R,13R,14S,17R)-3-hydroxy-10,13-dimethyl-2,3,4,7,8,9,10,11,12,13,14,15,16,17-tetradecahydro-1H-cyclopenta[a]phenanthren-17-yl)-1-((S)-3-phenylpiperidin-1-yl)pentan-1-one] | < 250 | 1000 to 10000
4 | COc1nccnc1N1CCN(C(=O)CC[C@@H](C)[C@H]2CC[C@H]3[C@@H]4CC=C5C[C@@H](O)CC[C@]5(C)[C@H]4CC[C@]23C)CC1 [Example 610, (R)-4-((3S,8S,9S,10R,13R,14S,17R)-3-hydroxy-10,13-dimethyl-2,3,4,7,8,9,10,11,12,13,14,15,16,17-tetradecahydro-1H-cyclopenta[a]phenanthren-17-yl)-1-(4-(3-methoxypyrazin-2-yl)piperazin-1-yl)pentan-1-one] | < 250 | > 10000
5 | C[C@H](CCc1ncccc1C(F)(F)F)[C@H]1CC[C@H]2[C@@H]3CC=C4C[C@@H](O)CC[C@]4(C)[C@H]3CC[C@]12C [Example 185, (1R,3aS,3bS,7S,9aR,9bS,11aR)-9a,11a-dimethyl-1-[(2R)-4-[3-(trifluoromethyl)pyridin-2-yl]butan-2-yl]-1H,2H,3H,3aH,3bH,4H,6H,7H,8H,9H,9aH,9bH,10H,11H, 11 aH-cyclopenta[a]phenanthren-7-ol] | 250 to 1000 | 1000 to 10000
6 | CON(CC(=O)O)C(=O)CC[C@@H](C)[C@H]1CC[C@H]2[C@@H]3CC=C4C[C@@H](O)CC[C@]4(C)[C@H]3CC[C@]12C [Example 63, N—((R)-4-((3S,8S,9S,10R,13R,14S,17R)-3-hydroxy-10,13-dimethyl-2,3,4,7,8,9,10,11,12,13,14,15,16,17-tetradecahydro-1H-cyclopenta[a]phenanthren-17-yl)pentanoyl)-N-methoxyglycine] | > 10000 | 250 to 1000
7 | C[C@H](CCc1ncccc1F)[C@H]1CC[C@H]2[C@@H]3CC=C4C[C@@H](O)CC[C@]4(C)[C@H]3CC[C@]12C [Example 164, (3S,8S,9S,10R,13R,14S,17R)-17-((R)-4-(3-fluoropyridin-2-yl)butan-2-yl)-10,13-dimethyl-2,3,4,7,8,9,10,11,12,13,14,15,16,17-tetradecahydro-1H-cyclopenta[a]phenanthren-3-ol] | 250 to 1000 | 250 to 1000
8 | C[C@H](CCC(=O)N1CCN(c2cc(N)ncn2)CC1)[C@H]1CC[C@H]2[C@@H]3CC=C4C[C@@H](O)CC[C@]4(C)[C@H]3CC[C@]12C [Example 633, (R)-1-(4-(6-aminopyrimidin-4-yl)piperazin-1-yl)-4-((3S,8S,9S,10R,13R,14S,17R)-3-hydroxy-10,13-dimethyl-2,3,4,7,8,9,10,11,12,13,14,15,16,17-tetradecahydro-1H-cyclopenta[a]phenanthren-17-yl)pentan-1-one] | < 250 | > 10000
9 | C[C@H](CCc1ccc(F)cn1)[C@H]1CC[C@H]2[C@@H]3CC=C4C[C@@H](O)CC[C@]4(C)[C@H]3CC[C@]12C [Example 162, (1R,3aS,3bS,7S,9aR,9bS,11aR)-1-[(2R)-4-(5-fluoropyridin-2-yl)butan-2-yl]-9a,11a-dimethyl-1H,2H,3H,3aH,3bH,4H,6H,7H,8H,9H,9aH,9bH,10H,11H,11aH-cyclopenta[a]phenanthren-7-ol] | < 250 | 1000 to 10000
10 | COc1cccc(CC[C@@H](C)[C@H]2CC[C@H]3[C@@H]4CC=C5C[C@@H](O)CC[C@]5(C)[C@H]4CC[C@]23C)n1 [Example 168, (3S,8S,9S,10R,13R,14S,17R)-17-((R)-4-(6-methoxypyridin-2-yl)butan-2-yl)-10,13-dim ethyl-2,3,4,7,8,9,10,11,12,13,14,15,16,17-tetradecahydro-1H-cyclopenta[a]phenanthren-3-ol] | 250 to 1000 | > 10000
11 | C[C@H](CCC(=O)N1CCN(C(=O)C2CC2)C[C@@H]1C)[C@H]1CC[C@H]2[C@@H]3CC=C4C[C@@H](O)CC[C@]4(C)[C@H]3CC[C@]12C [Example 651, (R)-1-((S)-4-(cyclopropanecarbonyl)-2-methylpiperazin-1-yl)-4-((3S,8S,9S,10R,13R,14S,17R)-3-hydroxy-10,13-dimethyl-2,3,4,7,8,9,10,11,12,13,14,15,16,17-tetradecahydro-1H-cyclopenta[a]phenanthren-17-yl)pentan-1-one] | < 250 | > 10000
12 | C[C@H](CCC(=O)N1CCN(c2cc(N(C)C)ncn2)CC1)[C@H]1CC[C@H]2[C@@H]3CC=C4C[C@@H](O)CC[C@]4(C)[C@H]3CC[C@]12C [Example 663, (R)-1-(4-(6-(dimethylamino)pyrimidin-4-yl)piperazin-1-yl)-4-((3S,8S,9S,10R,13R,14S,17R)-3-hydroxy-10,13-dimethyl-2,3,4,7,8,9,10,11,12,13,14,15,16,17-tetradecahydro-1H-cyclopenta[a]phenanthren-17-yl)pentan-1-one] | < 250 | > 10000
13 | Cc1cc(CC[C@@H](C)[C@H]2CC[C@H]3[C@@H]4CC=C5C[C@@H](O)CC[C@]5(C)[C@H]4CC[C@]23C)ncn1 [Example 189, (1R,3aS,3bS,7S,9aR,9bS,11aR)-9a,11a-dimethyl-1-[(2R)-4-(6-methylpyrimidin-4-yl)butan-2-yl]-1H,2H,3H,3aH,3bH,4H,6H,7H,8H,9H,9aH,9bH,10H,11H,11aH-cyclopenta[a]phenanthren-7-ol] | < 250 | 1000 to 10000
14 | C[C@H](CCC(=O)N1CCN(C(=O)c2nnn(C)n2)CC1)[C@H]1CC[C@H]2[C@@H]3CC=C4C[C@@H](O)CC[C@]4(C)[C@H]3CC[C@]12C [Example 342, (R)-4-((3S,8S,9S,10R,13R,14S,17R)-3-hydroxy-10,13-dimethyl-2,3,4,7,8,9,10,11,12,13,14,15,16,17-tetradecahydro-1H-cyclopenta[a]phenanthren-17-yl)-1-(4-(2-methyl-2H-tetrazole-5-carbonyl)piperazin-1-yl)pentan-1-one] | < 250 | > 10000
